Source: PMC2680982, “The cAMP-Dependent Protein Kinase Inhibitor H-89 Attenuates the Bioluminescence Signal Produced by Renilla Luciferase” (PLoS ONE, 2009)

Molecular target: T1, RLuc8 (Renilla luciferase variant) (Renilla reniformis, UniProt P27652, A55T/C124A/S130A/K136R/A143M/M185V/M253L/S287L)
T1 construct: RLuc8 in pRSETB, purified on Ni-NTA from E. coli
T1 sequence (P27652 1-311 A55T/C124A/S130A/K136R/A143M/M185V/M253L/S287L): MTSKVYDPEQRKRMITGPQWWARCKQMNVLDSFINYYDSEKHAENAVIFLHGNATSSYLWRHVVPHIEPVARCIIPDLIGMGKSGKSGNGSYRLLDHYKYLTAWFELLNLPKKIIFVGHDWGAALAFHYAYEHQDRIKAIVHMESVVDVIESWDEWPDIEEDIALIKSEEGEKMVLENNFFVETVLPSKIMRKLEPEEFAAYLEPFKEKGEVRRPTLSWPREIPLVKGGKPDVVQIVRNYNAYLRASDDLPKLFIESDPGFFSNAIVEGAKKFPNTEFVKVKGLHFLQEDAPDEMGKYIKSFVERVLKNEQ
Experiment: bioluminescence inhibition of […] purified RLuc8 with coelenterazine-h titration
Assay type: biochemical

O=S(=O)(NCCNC/C=C/c1ccc(Br)cc1)c1cccc2cnccc12 [H-89, N-[2-(p-bromocinnamylamino)ethyl]-5-isoquinolinesulfonamide] was tested, and the IC50 was 21 µM.
